We go through four compounds from patent US12280068B1 (ZYLORION HEALTH INC., priority 2023, dated 2025).

One test has as its target T1, human 5HT2A (Homo sapiens, UniProt P28223).
T1 construct: expressed in transfected cells
The test is described as follows: AequoScreen Ca2+ release assay in CHO-K1 cells. The format is cell-based. Conditions: for 5-HT2A-dependent Ca^2+ release Efficacy (% ± S.E.M.): CHO-K1 cells expressing h5HT2A.

Another test deals with T2, h5HT2A (Homo sapiens, UniProt P28223).
T2 construct: expressed in transfected cells; host or cells: CHO-K1 cells, transient transfection with Lipofectamine 3000
In words: NanoBit βarrestin2 recruitment assay in CHO-K1 cells. It counts as cell-based. (In general: Activated receptors often draw arrestin, which recruitment assays turn into a signal.)

The mark [1] stands for this setting: CHO-K1 cells, AUC of first 30 min.

T2 sequence (P28223 whole entry): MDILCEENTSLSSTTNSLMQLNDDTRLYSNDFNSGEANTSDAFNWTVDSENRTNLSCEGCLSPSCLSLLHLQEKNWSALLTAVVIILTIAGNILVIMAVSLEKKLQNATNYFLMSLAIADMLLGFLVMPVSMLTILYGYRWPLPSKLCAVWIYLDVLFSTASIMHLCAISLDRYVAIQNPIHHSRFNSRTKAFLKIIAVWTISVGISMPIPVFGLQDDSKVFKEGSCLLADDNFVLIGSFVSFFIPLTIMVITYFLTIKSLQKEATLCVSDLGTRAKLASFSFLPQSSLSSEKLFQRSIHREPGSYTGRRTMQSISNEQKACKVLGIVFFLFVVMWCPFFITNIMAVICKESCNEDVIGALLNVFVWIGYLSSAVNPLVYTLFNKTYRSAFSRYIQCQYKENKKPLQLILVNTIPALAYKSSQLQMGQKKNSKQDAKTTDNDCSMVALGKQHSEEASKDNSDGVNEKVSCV
T2 sequence (P32121 whole entry, further chain): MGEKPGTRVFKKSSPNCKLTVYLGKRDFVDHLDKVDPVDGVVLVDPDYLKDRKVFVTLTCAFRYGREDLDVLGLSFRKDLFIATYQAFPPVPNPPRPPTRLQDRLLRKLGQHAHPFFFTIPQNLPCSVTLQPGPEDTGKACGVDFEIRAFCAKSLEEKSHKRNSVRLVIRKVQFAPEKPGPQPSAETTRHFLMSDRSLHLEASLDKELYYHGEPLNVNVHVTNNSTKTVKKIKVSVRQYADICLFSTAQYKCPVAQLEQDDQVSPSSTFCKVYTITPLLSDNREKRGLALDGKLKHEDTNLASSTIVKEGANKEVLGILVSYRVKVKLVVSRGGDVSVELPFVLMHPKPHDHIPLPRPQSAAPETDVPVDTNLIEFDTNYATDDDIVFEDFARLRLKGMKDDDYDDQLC
T1 sequence (P28223 whole entry): as the sequence (P28223 whole entry) above
Excerpt for h5HT2A: Cell Culture—CHO-K1 cells were transfected with either NanoBit™ smBIT h5HT2A plasmids and lgBiT βarrestin2 plasmid. When h5HT2A and βarrestin2 come into contact with one another the smBiT and lgBiT peptides complement each other to produce a complete NanoBit™ luciferase enzyme. When complete, the enzyme is able to catalyze the breakdown of the molecule coelenterazine to produce light. Emitted light levels are proportional to interactions between receptor and βarrestin2. Cells were maintained at 37° C., 5% CO2 in F-12 DMEM containing 1 mM L-glutamine, 10% FBS, and 1% Pen/Strep. For transfections, CHO-K1 cells were seeded in 6-well plates (500,000 cells per well) and incubated overnight in standard media as described above. Following overnight incubation, the cells were transfected with 1 μg of both the h5HT2A and the βarr2 NanoBiT plasmids. Transfections were carried out using Lipofectamine 3000 (Fisher Scientific, Ottawa, ON), according to the manufacturer's protocol in Opti-MEM media containing 1% FBS.
βarrestin2 assay—After seeding at 20,000 cells/well in flat bottom, white bottom, white wall, poly-D-lysine coated 96-well plates, transfected CHO-K1 cells were rinsed twice with Hank's buffered salt solution (HBSS), and 100 μL of HBSS was added to each of the wells. To this, 25 μL of Nano-Glo Live Cell Substrate was added (diluted 1/20 in the Nano-Glo LCS Dilution buffer, according to the manufacturer's protocol), and the plate was transferred to a Cytation5 plate reader. […] AUC data were then used for subsequent analyses.
Description for human 5HT2A: Cell Culture—AequoScreen™ Chinese hamster ovary (CHO)-K1 cells stably expressing human 5HT2A or 5HT2B (h5HT2A, h5HT2B) were maintained at 37° C., 5% CO2 in F-12 DMEM containing 1 mM L-glutamine, 10% FBS, and 1% Pen/Strep.
Ca^2+ Assay—Release of Ca^2+ into the cellular cytosol upon GPCR-dependent activation of Gaq/11 was determined using the AequoScreen™ assay in CHO-K1 cells stably expressing h5HT2A or h5HT2B. […] Upon binding Ca^2+, apoaequorin becomes activated to aequorin and converts coelenterazine to coelenteramide, CO2, and light. Light production is therefore directly proportional to the release of Ca^2+ from intracellular stores upon GPCR activation. Cells were seeded into flat bottom, white bottom, white wall, poly-D-lysine coated 96-well plates (20,000 cells/well) and incubated overnight in Opti-MEM containing 1% FBS at 37° C. and 5% CO2. Following this, Opti-MEM media was removed and replaced with fresh Opti-MEM containing 5 μM coelenterazine h (Promega, Madison, WI) and 1% FBS (final volume 50 μL) and cells were incubated at 25° C. for 4 h. After these 4 h, cells were treated with 50 μL 2× concentrated ligand solutions to achieve the concentrations indicated and centrifuged at 1,000×g for 1 min at room temperature. Chemiluminescence was then immediately measured on a Cytation5 plate reader (top read, gain 200, integration time 10,000 msec).

Consider `CCN(CC)C(=O)[C@@H]1C=C2c3cccc4[nH]cc(c34)C[C@H]2N(C)C1` [LSD, lysergic acid diethylamide], for which the “5-HT2A-dependent Ca^2+ release Efficacy (% ± S.E.M.)” value on human 5HT2A turned out to be 82 ± 4.7%. For the same compound, at h5HT2A (setting [1]), the “5-HT2A-dependent βarrestin2 recruitment Efficacy (% ± S.E.M.)” value was 83 ± 4.7%.
With `CN(C)CCc1c[nH]c2cccc(O)c12` [Psilocin], on human 5HT2A, the “5-HT2A Ca^2+ release activity (in words)” value is reported as “high potency” and the “5-HT2A-dependent Ca^2+ release Efficacy (% ± S.E.M.)” value worked out at 69 ± 12%. The “5-HT2A βarrestin2 recruitment activity (in words)” value at h5HT2A was “intermediate potency”. The “5-HT2A-dependent βarrestin2 recruitment Efficacy (% ± S.E.M.)” value at h5HT2A (setting [1]) amounted to 45 ± 15%.
For the compound `CN(C)CCc1c[nH]c2cccc(OP(=O)(O)O)c12` [Psilocybin], at human 5HT2A, the “5-HT2A-dependent Ca^2+ release Efficacy (% ± S.E.M.)” value is 69 ± 15%. At h5HT2A (setting [1]), the “5-HT2A-dependent βarrestin2 recruitment Efficacy (% ± S.E.M.)” value was found to be 3.7 ± 22% and the “5-HT2A-dependent βarrestin2 recruitment Potency (nM)” value is “not converged”.
As for `NCCc1c[nH]c2ccc(O)cc12` [Serotonin (5HT), 5-hydroxytryptamine], the “5-HT2A-dependent βarrestin2 recruitment Efficacy (% ± S.E.M.)” value at h5HT2A (setting [1]) is 37 ± 16%.
